Source: patent US9833497B2, “Human originated EGF domain proteins and use of the same” (CHENGDU SOURCEBIO LIMITED-LIABILITY COMPANY, priority 2013, dated 2017)

Legend:
Assay type in all cases: cell-based
[1] = test system: Proteus mirabilis; assay: MIC against Gram-negative bacteria: Proteus mirabilis; settings: for MIC / MIC (μg/mL) P. mirabilis: P. mirabilis; for MIC / MIC against P. mirabilis / MIC (μg/mL) P. mirabilis: 10 h cultivation at 37° C.; for MIC against P. mirabilis: Proteus mirabilis
Procedure, shortened: (§1)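 First, colonies from LB agar were grown in LB at 37° C, 185 rpm, to McFarland turbidity 0.5, then centrifuged and resuspended in fresh LB. Next, wells received 5×10^5 CFU/mL bacteria plus two-fold serially diluted EGF domain protein (triplicate). Finally, plates were shaken at 37° C and the no-growth concentration taken as MIC.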

[2] = test system: Klebsiella pneumonia; assay: MIC against Gram-negative bacteria: Klebsiella pneumonia; settings: for MIC / MIC (μg/mL) K. pneumonia: K. pneumonia; for MIC / MIC against K. pneumonia / MIC (μg/mL) K. pneumonia: 10 h cultivation at 37° C.; for MIC against K. pneumonia: Klebsiella pneumonia
Procedure, shortened: as §1

[3] = test system: E. coli BL21; assay: MIC against Gram-negative bacteria: E. coli BL21; settings: for MIC / MIC against E. coli BL21 / MIC (μg/mL) E. coli BL21: E. coli BL21, 10 h cultivation at 37° C.
Procedure, shortened: as §1

[4] = test system: E. coli DH5α; assay: Antibacterial activity: MIC and growth curve against E. coli DH5α in 96-well plate; settings: minimal inhibitory concentration against E. coli DH5α; 96-well plate, 5×10^5 CFU/mL, 37° C., judged after 8 h
Procedure, shortened: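 Log-phase DH5α (OD600 about 0.5, 37° C, 185 rpm in LB) was pelleted, resuspended in fresh LB and seeded at 5×10^5 CFU/mL with recombinant protein at 50, 25 and 12.5 μg/mL (two-fold series), in triplicate. Plates were shaken at 175 rpm, 37° C, and OD600 was read every 30 min. MIC was the lowest concentration with no growth.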

[5] = test system: Pseudomonas aeruginosa; assay: MIC against Gram-negative bacteria: Pseudomonas aeruginosa; settings: for MIC / MIC (μg/mL) P. aeruginosa: P. aeruginosa; for MIC / MIC against P. aeruginosa / MIC (μg/mL) P. aeruginosa: 10 h cultivation at 37° C.; for MIC against P. aeruginosa: Pseudomonas aeruginosa
Procedure, shortened: as §1

[6] = test system: Enterobacter cloacae; assay: MIC against Gram-negative bacteria: Enterobacter cloacae; settings: for MIC / MIC (μg/mL) E. cloacae: E. cloacae; for MIC / MIC against E. cloacae / MIC (μg/mL) E. cloacae: 10 h cultivation at 37° C.; for MIC against E. cloacae: Enterobacter cloacae
Procedure, shortened: as §1

[7] = test system: Proteus vulgaris; assay: MIC against Gram-negative bacteria: Proteus vulgaris; settings: for MIC / MIC (μg/mL) P. vulgaris: P. vulgaris; for MIC / MIC against P. vulgaris / MIC (μg/mL) P. vulgaris: 10 h cultivation at 37° C.; for MIC against P. vulgaris: Proteus vulgaris
Procedure, shortened: as §1

[8] = test system: Citrobacter diversus; assay: MIC against Gram-negative bacteria: Citrobacter diversus; settings: for MIC / MIC (μg/mL) C. diversus: C. diversus; for MIC / MIC against C. diversus / MIC (μg/mL) C. diversus: 10 h cultivation at 37° C.; for MIC against C. diversus: Citrobacter diversus
Procedure, shortened: as §1

[9] = test system: Moraxella catarrhalis; assay: MIC against Gram-negative bacteria: Moraxella catarrhalis; settings: for MIC / MIC (μg/mL) M. catarrhalis: M. catarrhalis; for MIC / MIC against M. catarrhalis / MIC (μg/mL) M. catarrhalis: 10 h cultivation at 37° C.; for MIC against M. catarrhalis: Moraxella catarrhalis
Procedure, shortened: as §1

[10] = test system: Aeromonas hydrophila; assay: MIC against Gram-negative bacteria: Aeromonas hydrophila; settings: for MIC / MIC (μg/mL) A. hydrophila: A. hydrophila; for MIC / MIC against A. hydrophila / MIC (μg/mL) A. hydrophila: 10 h cultivation at 37° C.; for MIC against A. hydrophila: Aeromonas hydrophila
Procedure, shortened: as §1

[11] = test system: Serratia marcescens; assay: MIC against Gram-negative bacteria: Serratia marcescens; settings: for MIC / MIC (μg/mL) S. marcescens: S. marcescens; for MIC / MIC against S. marcescens / MIC (μg/mL) S. marcescens: 10 h cultivation at 37° C.; for MIC against S. marcescens: Serratia marcescens
Procedure, shortened: as §1

[12] = 96-well plate, 5×10^5 CFU/mL, 37° C., 10 h

PRT963 (QVDECRSQPCRHGGKCLDLVDKYLCRCPSGTTGVNCE; listed as Homo sapiens)
MIC [1]: 50 µg/mL | MIC [2]: 12.5 µg/mL | MIC [3]: 50 µg/mL | MIC [4]: 25 µg/mL | MIC [5]: 25 µg/mL | MIC [6]: 25 µg/mL | MIC [7]: 25 µg/mL | MIC [8]: 25 µg/mL | MIC [9]: 12.5 µg/mL | MIC [10]: 50 µg/mL | MIC [11]: 25 µg/mL

PRT1482 (LCSFGCGSGICIAPNVCSCQDGEQGATCP; listed as Homo sapiens)
MIC against P. mirabilis ([1]; 5×10^5 CFU/mL): 50 µg/mL | MIC against K. pneumonia ([2]; 5×10^5 CFU/mL): 50 µg/mL | MIC against E. coli BL21 ([3]; 5×10^5 CFU/mL): 50 µg/mL | MIC [4]: 12.5 µg/mL | MIC against P. aeruginosa ([5]; 5×10^5 CFU/mL): 12.5 µg/mL | MIC against E. cloacae ([6]; 5×10^5 CFU/mL): 12.5 µg/mL | MIC against P. vulgaris ([7]; 5×10^5 CFU/mL): 25 µg/mL | MIC against C. diversus ([8]; 5×10^5 CFU/mL): 12.5 µg/mL | MIC against M. catarrhalis ([9]; 5×10^5 CFU/mL): 25 µg/mL | MIC against A. hydrophila ([10]; 5×10^5 CFU/mL): 50 µg/mL | MIC against S. marcescens ([11]; 5×10^5 CFU/mL): 25 µg/mL

PRT943 (PNVSCDIAASRRGVLVEHLCQHSGVCINAGNTHYCQCPLGYTGSYCE; listed as Homo sapiens)
MIC [1]: 12.5 µg/mL | MIC [2]: 12.5 µg/mL | MIC [3]: 12.5 µg/mL | MIC [4]: 12.5 µg/mL | MIC [5]: 12.5 µg/mL | MIC [6]: 25 µg/mL | MIC [7]: 12.5 µg/mL | MIC [8]: 12.5 µg/mL | MIC [9]: 12.5 µg/mL | MIC [10]: 12.5 µg/mL | MIC [11]: 50 µg/mL

PRT251 (FSHLCLEDHNSYCINGACAFHHELEKAICRCFTGYTGERCE; listed as Homo sapiens)
MIC (μg/mL) P. mirabilis ([1]; 5×10^5 CFU/mL): 12.5 µg/mL | MIC (μg/mL) K. pneumonia ([2]; 5×10^5 CFU/mL): 12.5 µg/mL | MIC (μg/mL) E. coli BL21 ([3]; 5×10^5 CFU/mL): 12.5 µg/mL | MIC [4]: 25 µg/mL | MIC (μg/mL) P. aeruginosa ([5]; 5×10^5 CFU/mL): 25 µg/mL | MIC (μg/mL) E. cloacae ([6]; 5×10^5 CFU/mL): 25 µg/mL | MIC (μg/mL) P. vulgaris ([7]; 5×10^5 CFU/mL): 12.5 µg/mL | MIC (μg/mL) C. diversus ([8]; 5×10^5 CFU/mL): 25 µg/mL | MIC (μg/mL) M. catarrhalis ([9]; 5×10^5 CFU/mL): 12.5 µg/mL | MIC (μg/mL) A. hydrophila ([10]; 5×10^5 CFU/mL): 12.5 µg/mL | MIC (μg/mL) S. marcescens ([11]; 5×10^5 CFU/mL): 12.5 µg/mL

PRT708 (QYYVCHHYCVNSESCTIGDDGSVECVCPTRYEGPKCE; listed as Homo sapiens)
MIC P. mirabilis [1, 12]: 50 µg/mL | MIC K. pneumonia [2, 12]: 25 µg/mL | MIC E. coli BL21 [3, 12]: 25 µg/mL | MIC [4]: 50 µg/mL | MIC P. aeruginosa [5, 12]: 50 µg/mL | MIC E. cloacae [6, 12]: 50 µg/mL | MIC P. vulgaris [7, 12]: 12.5 µg/mL | MIC C. diversus [8, 12]: 50 µg/mL | MIC M. catarrhalis [9, 12]: 12.5 µg/mL | MIC A. hydrophila [10, 12]: 12.5 µg/mL | MIC S. marcescens [11, 12]: 50 µg/mL

PRT802 (SNRCQCQNGALCNPITGACVCAAGFRGWRCE; listed as Homo sapiens)
MIC (μg/mL) P. mirabilis ([1]; 5×10^5 CFU/mL): 25 µg/mL | MIC (μg/mL) K. pneumonia ([2]; 5×10^5 CFU/mL): 12.5 µg/mL | MIC (μg/mL) E. coli BL21 ([3]; 5×10^5 CFU/mL): 12.5 µg/mL | MIC [4]: 12.5 µg/mL | MIC (μg/mL) P. aeruginosa ([5]; 5×10^5 CFU/mL): 25 µg/mL | MIC (μg/mL) E. cloacae ([6]; 5×10^5 CFU/mL): 12.5 µg/mL | MIC (μg/mL) P. vulgaris ([7]; 5×10^5 CFU/mL): 25 µg/mL | MIC (μg/mL) C. diversus ([8]; 5×10^5 CFU/mL): 25 µg/mL | MIC (μg/mL) M. catarrhalis ([9]; 5×10^5 CFU/mL): 12.5 µg/mL | MIC (μg/mL) A. hydrophila ([10]; 5×10^5 CFU/mL): 12.5 µg/mL | MIC (μg/mL) S. marcescens ([11]; 5×10^5 CFU/mL): 12.5 µg/mL

PRT1484 (DTDECLGTPCQQRCKNSIGSYKCSCRTGFHLHGNRHSCV; listed as Homo sapiens)
MIC against P. mirabilis ([1]; 5×10^5 CFU/mL): 50 µg/mL | MIC against K. pneumonia ([2]; 5×10^5 CFU/mL): 12.5 µg/mL | MIC against E. coli BL21 ([3]; 5×10^5 CFU/mL): 12.5 µg/mL | MIC [4]: 50 µg/mL | MIC against P. aeruginosa ([5]; 5×10^5 CFU/mL): 50 µg/mL | MIC against E. cloacae ([6]; 5×10^5 CFU/mL): 25 µg/mL | MIC against P. vulgaris ([7]; 5×10^5 CFU/mL): 12.5 µg/mL | MIC against C. diversus ([8]; 5×10^5 CFU/mL): 25 µg/mL | MIC against M. catarrhalis ([9]; 5×10^5 CFU/mL): 12.5 µg/mL | MIC against A. hydrophila ([10]; 5×10^5 CFU/mL): 50 µg/mL | MIC against S. marcescens ([11]; 5×10^5 CFU/mL): 50 µg/mL
